Legend:
Type in all cases: in vivo
normal chow-fed mice = assay: Chronic oral fexaramine in normal chow-fed mice
Experimental: FIGS. 3A-3D are line graphs and a bar graph showing the effects of fexaramine administration in normal chow-fed mice. The mice were treated with vehicle or fexaramine (100 mg/kg) via PO for 5 weeks. Data represent the mean±STD. Statistical analysis as performed with the Student's t test (*p<0.05, **p<0.01).
To investigate the physiological effects of intestinal FXR activation by fexaramine, mice were subjected to chronic fexaramine (100 mg/kg Fex) PO treatment for 5 weeks.

FXR-null mice = assay: Fexaramine in HFD-fed FXR-null mice; conditions: 100 mg/kg 5 weeks
Experimental: Data represent the mean±SD. Statistical analysis was performed with the Student's t test. *p<0.05, **p<0.01.

TGR5 null mice = assay: Fexaramine in HFD-fed TGR5-null mice; conditions: 100 mg/kg/day PO 5 weeks
Experimental: HFD-fed TGR5-null mice were treated with vehicle or fexaramine (100 mg/kg os daily for 5 weeks with HFD, n=10). (A) Ileal FXR target gene expressions (B) Serum BA levels (C) Fasting glucose levels (D) Glucose tolerance test (E) Core body temperature (F) Oxygen consumption rate (G) Carbon dioxide production (H) Gene expression in BAT (I) Body weight curve (J) Body composition by MRI (K) Insulin Tolerance Test (L) Hepatic gene expression (M) Hepatic TG levels (N) and Gene expression in soleus of TGR5 knockout mice with and without fexaramine treatment. Data represent the mean±SD. Statistical analysis was performed with the Student's t test. *p<0.05, **p<0.01.
To address this possibility, HFD-fed TGR5 null mice were chronically treated with Fex (100 mg/kg/day PO for 5 weeks). […] In particular, the anti-lipogenic effects of Fex in the liver appear to require TGR5 activation, as key hepatic lipogenic genes and liver triglyceride content were not affected by Fex treatment (FIGS. 11L, 11M).

[1] = test system: brown adipose tissue (BAT); assay: Energy expenditure and brown adipose tissue (BAT) analysis in Fex-treated DIO mice
Experimental: Mice were fed HFD for 14 weeks and then administered vehicle or fexaramine (100 mg/kg) daily by oral administration for 5 weeks with HFD. Data represent the mean±STD. Statistical analysis was performed with the Student's t test (*p<0.05, **p<0.01).
FIG. 6M is a bar chart showing the effect of fexaramine on respiratory exchange ratio (RER). Mice were fed on HFD for 14 weeks, and then administered daily oral injections of vehicle or fexaramine (100 mg/kg) for 5 weeks with HFD.
FIG. 6N is a bar graph showing the effect of fexaramine administration on serum lactate concentrations. Mice were fed on HFD for 14 weeks, and then administered daily oral injections of vehicle or fexaramine (100 mg/kg) for 5 weeks with HFD. […] Data represent the mean±STD. Statistical analysis was performed with the Student's t test (*p<0.05, **p<0.01).
(FIG. 6E). […] Gene expression analysis confirmed the induction of ERRγ, PGC-1α, and PGC-1β, as well as a number of their target genes involved in thermogenesis, mitochondrial biogenesis, and fatty acid oxidation in BAT (FIG. 6G).

[2] = test system: FGF15 signaling and bile acid composition; assay: FGF15 signaling, hepatic bile acid genes, serum bile acid composition and intestinal barrier in Fex-treated HFD mice
Experimental: FIGS. 7A-7H show a comparative expression chart and bar charts illustrating that fexaramine increased endogenous FGF15 signaling and changes in BA composition. Mice were fed HFD for 14 weeks and then administered daily oral injections of vehicle or fexaramine (100 mg/kg) for 5 weeks with HFD. In the bar graphs, open bars represent vehicle treatment and solid bars represent fexaramine treatment, and data represent the mean±STD. Statistical analysis was performed with the Student's t test (*p<0.05, **p<0.01).
FIG. 8 is a bar graph showing hepatic Cyp7a1 levels determined by ELISA. Data represent the mean±SD. Statistical analysis was performed with the Student's t test. *p<0.05, **p<0.01.
Mice fed a HFD for 14 weeks were maintained on a HFD and treated with vehicle or fexaramine (100 mg/kg/day per os for 5 week). Serum bile acid composition was determined by mass spectrometry. N.D. not determined.
FXR activation has been reported to enhance mucosal defense gene expression and intestinal barrier function (Inagaki et al., Proc Natl Acad Sci USA 103:3920-3925, 2006; Gadaleta., et al. Gut 60:463-472, 2011).

DIO mice = assay: Hyperinsulinemic-euglycemic clamp and liver analysis in Fex-treated DIO mice
Experimental: Mice were fed HFD for 14 weeks and then subjected to daily PO injection of vehicle or fexaramine (100 mg/kg) for 5 weeks with HFD. In the bar graphs, open bars are vehicle, solid bars are fexaramine, and data represent the mean±STD. Statistical analysis was performed with the Student's t test (*p<0.05, **p<0.01).
FIGS. 15I-15K are a line graph and two bar graphs showing the effect of fexaramine treatment on body weight, insulin-stimulated GDR, and fasting insulin levels. Mice were fed HFD for 14 weeks, and then administered daily oral injections of vehicle or fexaramine (100 mg/kg) for 3 weeks with HFD. The mice treated with fexaramine were initially heavier (by 2-3 grams). Three weeks after treatment, a clamp study was performed on the mice. Data represent the mean±STD. Statistical analysis was performed with the Student's t test (*p<0.05, **p<0.01).
Liver insulin resistance has been linked to obesity-induced hepatic steatosis (Cohen et al., Science 332:1519-1523, 2011). […] Furthermore, decreased serum alanine aminotransferase (ALT) levels were measured in Fex-treated mice, indicating reduced HFD-induced liver damage (FIG. 15H). Thus, in DIO mice Fex promotes hepatic insulin sensitization, reduced steatosis, improved metabolic markers, decreased ALT and enhanced BAT activity.

[3] = DIO mice, 100 mg/kg PO 5 weeks, listed as fexaramine, 100 mg/kg
[4] = DIO mice, chronic Fex treatment

COC(=O)/C=C/c1cccc(N(Cc2ccc(-c3ccc(N(C)C)cc3)cc2)C(=O)C2CCCCC2)c1 [Fex, fexaramine]
weight gain, basal metabolic activity and glucose tolerance (normal chow-fed mice; chow-fed mice, 100 mg/kg PO 5 weeks): indistinguishable from vehicle-treated mice | glucose homeostasis (normal chow-fed mice; normal chow-fed mice, range of doses): no effects observed | Fex-induced changes in gene expression and improvements in metabolic homeostasis (FXR-null mice): abrogated | FXR target genes in ileum including FGF15 (TGR5 null mice): induced multiple FXR target genes | core body temperature and metabolic rate (TGR5 null mice): somewhat blunted increases | fasting glucose levels and glucose tolerance (TGR5 null mice): moderate improvements | key hepatic lipogenic genes and liver triglyceride content (TGR5 null mice): not affected | serum BA levels (TGR5 null mice): lowered serum BA levels | weight gain or insulin sensitivity (TGR5 null mice): no significant changes | OXPHOS gene expression changes in inguinal, gonadal and brown adipose depots (RNA-sequencing) ([1]; DIO mice, 100 mg/kg PO 5 weeks): selectively enhance OXPHOS activity only in BAT | PKA activity in BAT ([1]; DIO mice, 100 mg/kg PO 5 weeks): increased PKA activity | accumulation of lipid vesicles in BAT (histology) ([1]; DIO mice, 100 mg/kg PO 5 weeks): markedly reduced | ambulatory counts (activity) ([1]; DIO mice, 100 mg/kg PO 5 weeks): more active than control mice | carbon dioxide production (VCO2) ([1]; DIO mice, 100 mg/kg PO 5 weeks): exhaled more carbon dioxide | gene expression of ERRγ, PGC-1α, PGC-1β and target genes in BAT ([1]; DIO mice, 100 mg/kg PO 5 weeks): induction | oxygen consumption (VO2) ([1]; DIO mice, 100 mg/kg PO 5 weeks): consistently higher oxygen consumption | phosphorylation level of p38 in BAT ([1]; DIO mice, 100 mg/kg PO 5 weeks): increased the phosphorylation level of p38 | serum lactate levels ([1]; DIO mice, 100 mg/kg PO 5 weeks, 100 mg/kg): significantly reduced | respiratory exchange ratio (RER) [1, 3]: No changes were observed | serum lactate levels [1, 3]: significantly decreased | food intake ([1]; DIO mice, first week of treatment): not attributable to difference in food intake | DIO2 (downstream target of TGR5) in BAT ([1]; oral Fex): induce DIO2 | FGF15 expression in intestine (RNA-Seq) ([2]; 100 mg/kg PO 5 weeks): dramatically up-regulated | bile acid pool size (total serum BA levels) ([2]; 100 mg/kg PO 5 weeks): reducing the bile acid pool size | ratio of unconjugated to conjugated cholic acid ([2]; 100 mg/kg PO 5 weeks): remarkably increased | circulating FGF15 ([2]; 100 mg/kg PO 5 weeks, serum): increase in circulating FGF15 | expression of liver FXR target genes SHP and BSEP ([2]; chronic Fex treatment): not altered | hepatic CYP7A1 expression (mRNA and protein) ([2]; chronic Fex treatment): significantly repressed | hepatic expression of CYP8B1 and CYP27A1 ([2]; chronic Fex treatment): not affected | expression of mucosal defense genes Occludin and Muc2 ([2]; chronic Fex-treatment): increased expression | lipid droplets in liver (histology, hepatic steatosis) (DIO mice; DIO mice, 100 mg/kg PO 5 weeks): reduction in lipid droplets | serum alanine aminotransferase (ALT) levels (DIO mice; DIO mice, 100 mg/kg PO 5 weeks): decreased | hepatic expression of gluconeogenic and lipogenic genes (DIO mice; [4]): reduced hepatic expression | hepatic triglycerides (DIO mice; [4]): marked decrease | insulin-mediated suppression of HGP (DIO mice; hyperinsulinemic-euglycemic clamp, versus control DIO mice): marked increase | basal HGP, GDR, IS-GDR, FFA suppression and fasting insulin levels (DIO mice; weight-matched cohorts, hyperinsulinemic-euglycemic clamp): No differences
